Reference: publication PMC6271870, “Study on the Synthesis, Biological Activity and Spectroscopy of Naphthalimide-Diamine Conjugates” (Molecules, 2014)

How the values were obtained:
human leukemia K562 = assay: MTT assay, K562 cells; format: cell-based; conditions: 48 h, aminoguanidine present, mean ± SD of three determinations, max 50 µM tested
Description: The cytotoxicities of the novel conjugates were assessed in vitro by the MTT assay in the presence of aminoguanidine (an inhibitor of amine oxidase) against three cell lines, human leukemia K562, cancer of colon HCT116 and human normal hepatocyte QSG-7701 [34]. […] Thus, compound 7f was selected for further investigation. Cell lines, K562, 7721 and HCT116 were obtained from American Type Culture Collection (ATCC, Shanghai, China). Cells were cultured in RPMI1640, supplemented with 10% heat-inactivated fetal calf serum (FCS), antibiotics (penicillin, 100 units/mL; streptomycin sulfate, 100 μg/mL) at 37 °C, in an atmosphere of 95% air and 5% CO2 under humidified conditions. Aminoguanidine (1 mM) was added as an inhibitor of amine oxidase derived from FCS and had no effect on the various parameters of the cell measured in this study. Chemosensitivity was assessed using the 3-(4,5-dimethylthiazol-2-yl)-2,5-diphenyltetrazolium bromide (MTT) assay. […] After incubation for 4 h at 37 °C, the purple formazan crystals (i.e., a reduced form of MTT) generated from viable cells were dissolved by adding 100 μL 10% sodium dodecyl sulphate (SDS) in each well. The absorbance of each well was then read at 570 nm.

[1] = test system: human normal hepatocyte QSG-7701; assay: MTT assay, QSG-7701 cells; format: cell-based; conditions: QSG7701, aminoguanidine present, mean ± SD of three determinations, max 50 µM tested
Description: (§1) The cytotoxicities of the novel conjugates were assessed in vitro by the MTT assay in the presence of aminoguanidine (an inhibitor of amine oxidase) against three cell lines, human leukemia K562, cancer of colon HCT116 and human normal hepatocyte QSG-7701 [34]. […] Thus, compound 7f was selected for further investigation. Cell lines, K562, 7721 and HCT116 were obtained from American Type Culture Collection (ATCC, Shanghai, China). Cells were cultured in RPMI1640, supplemented with 10% heat-inactivated fetal calf serum (FCS), antibiotics (penicillin, 100 units/mL; streptomycin sulfate, 100 μg/mL) at 37 °C, in an atmosphere of 95% air and 5% CO2 under humidified conditions. Aminoguanidine (1 mM) was added as an inhibitor of amine oxidase derived from FCS and had no effect on the various parameters of the cell measured in this study. In addition, exponentially growing HCT116 or 7721 cells were seeded into 96-well plates at 5000 cells/well and allowed to attach overnight, and then 100 μL of MTT (1 mg/mL) was added. After incubation for 4 h at 37 °C, the MTT solution was removed and the remaining formazan crystals were dissolved with 150 μL DMSO in each well. The absorbance of each well was then read at 570 nm.

cancer of colon HCT116 = assay: MTT assay, HCT116 cells; format: cell-based; conditions: Homo sapiens, HCT-116, aminoguanidine present, mean ± SD of three determinations, max 50 µM tested
Description: as §1

IC50 (human leukemia K562) | IC50 (cancer of colon HCT116) | melting point | Structure (SMILES) | IC50 [1]
48.8 ± 3.93 µM | 19.3 ± 4.39 µM | 233.4 to 235.1 °C | Cl.Cl.NCCNCCCN1C(=O)c2cccc3cccc(c23)C1=O [Compound 7a, 2-[3-(2-Aminoethylamino)propyl]1H-benz-[de]isoquinoline-1,3(2H)-dione dihydrochloride] | > 50 µM
25.6 ± 3.74 µM | 13.9 ± 2.68 µM | 243.1 to 244.1 °C | Cl.Cl.NCCNCCCCN1C(=O)c2cccc3cccc(c23)C1=O [Compound 7b, 2-[4-(2-Aminoethylamino)butyl]1H-benz-[de]isoquinoline-1,3(2H)-dione dihydrochloride] | 33.9 ± 4.32 µM
38.8 ± 1.76 µM | 9.89 ± 1.11 µM | 233.8 to 235.1 °C | Cl.Cl.NCCNCCCCCN1C(=O)c2cccc3cccc(c23)C1=O [Compound 7c, 2-[5-(2-Aminoethylamino)pentyl]1H-benz-[de]isoquinoline-1,3(2H)-dione dihydrochloride] | > 50 µM
19.7 ± 7.23 µM | 8.95 ± 3.87 µM | 233.1 to 234.2 °C | Cl.Cl.NCCCNCCCN1C(=O)c2cccc3cccc(c23)C1=O [Compound 7d, 2-[3-(3-Aminopropylamino)propyl]1H-benz-[de]isoquinoline-1,3(2H)-dione dihydrochloride] | 8.04 ± 3.35 µM
22.4 ± 1.21 µM | 9.52 ± 3.31 µM | 238.6 to 239.8 °C | Cl.Cl.NCCCNCCCCCN1C(=O)c2cccc3cccc(c23)C1=O [Compound 7e, 2-[5-(3-Aminopropylamino)pentyl]1H-benz-[de]isoquinoline-1,3(2H)-dione dihydrochloride] | 22.2 ± 0.67 µM
14 ± 3.32 µM | 13.9 ± 2.54 µM | 226.7 to 228.3 °C | Cl.Cl.NCCCCNCCCCN1C(=O)c2cccc3cccc(c23)C1=O [Compound 7g, 2-[4-(4-Aminobutylamino)butyl]1H-benz-[de]isoquinoline-1,3(2H)-dione dihydrochloride] | 12 ± 4.07 µM
15.9 ± 1.53 µM | 16.2 ± 4.28 µM | 236.6 to 237.9 °C | Cl.Cl.NCCCCNCCCCCN1C(=O)c2cccc3cccc(c23)C1=O [Compound 7h, 2-[5-(4-Aminobutylamino)pentyl]1H-benz-[de]isoquinoline-1,3(2H)-dione dihydrochloride] | 18.8 ± 4.94 µM
41.4 ± 1.76 µM | 11 ± 1.71 µM | 230.6 to 231.8 °C | Cl.Cl.NCCCCCCNCCCN1C(=O)c2cccc3cccc(c23)C1=O [Compound 7i, 2-[3-(6-Aminohexylamino)propyl]1H-benz-[de]isoquinoline-1,3(2H)-dione dihydrochloride] | > 50 µM
12.6 ± 0.81 µM | 16.4 ± 1.75 µM | 235.9 to 237.2 °C | Cl.Cl.NCCCCCCNCCCCN1C(=O)c2cccc3cccc(c23)C1=O [Compound 7j, 2-[4-(6-Aminohexylamino)butyl]1H-benz-[de]isoquinoline-1,3(2H)-dione dihydrochloride] | 13.1 ± 3.94 µM
15.9 ± 1.83 µM | 9.95 ± 1.81 µM | 229.1 to 230.3 °C | Cl.Cl.NCCCCCCNCCCCCN1C(=O)c2cccc3cccc(c23)C1=O [Compound 7k, 2-[5-(6-Aminohexylamino)pentyl]1H-benz-[de]isoquinoline-1,3(2H)-dione dihydrochloride] | 14.7 ± 3.91 µM

Structure (SMILES) | IC50 (human leukemia K562) | IC50 (cancer of colon HCT116) | melting point | IC50 [1]
CN(C)CCN1C(=O)c2cccc3cc(N)cc(c23)C1=O [Amonafide, amonafide, reference compound] | 10.1 ± 2.59 µM | 6.86 ± 1.89 µM |  | 20.3 ± 2.43 µM
